For one assay, the target named is SMARCA2 (Homo sapiens, UniProt P51531). The assay can be described thus: HiBit assay in engineered HT1080 CRISPR knock-in cell, 6 hrs (B series), SMARCA2. To be noted: 6 hrs incubation; for DC50: HT1080 CRISPR knock-in cells, read-out: SMARC A2 HT1080 HiBit DC50; for Dmax: HT-1080, HT1080 CRISPR knock-in cells, read-out: SMARC A2 HT1080 HiBit Dmax (%). It is filed as cell-based. A digest of the protocol:
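Compounds were dispensed first, then HT1080 knock-in cells added and incubated for 6 hrs at 37° C. Next, detection reagent containing LgBiT and lytic substrate was added. Plates were shaken 10 min and centrifuged, and luminescence was measured.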
(In general: The HiBiT peptide binds its large partner to form an active luciferase.)

Another assay has as its target SMARCA4 (Homo sapiens, UniProt P51532). The assay can be described thus: HiBit assay in engineered HT1080 CRISPR knock-in cell, 6 hrs (B series), SMARCA4. It is filed as cell-based. The conditions noted are these: for DC50: HT1080 CRISPR knock-in cells, read-out: SMARC A4 HT1080 HiBit DC50. A digest of the protocol: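 HT1080 CRISPR knock-in cells carrying the HiBiT tag were seeded onto compounds (final DMSO 0.1%) and incubated 6 hrs at 37° C, 5% CO2. Remaining tagged protein was detected by lytic HiBiT luminescence after adding LgBiT protein and substrate, with LgBiT-free wells serving as negative control.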

Where [1] appears, read: HT-1080, HT1080 CRISPR knock-in cells, 6 hrs incubation, read-out: SMARC A4 HT1080 HiBit Dmax(%).

Like-named read-outs stand apart in the source and are kept apart here.

Sequence of SMARCA2 (P51531 whole entry): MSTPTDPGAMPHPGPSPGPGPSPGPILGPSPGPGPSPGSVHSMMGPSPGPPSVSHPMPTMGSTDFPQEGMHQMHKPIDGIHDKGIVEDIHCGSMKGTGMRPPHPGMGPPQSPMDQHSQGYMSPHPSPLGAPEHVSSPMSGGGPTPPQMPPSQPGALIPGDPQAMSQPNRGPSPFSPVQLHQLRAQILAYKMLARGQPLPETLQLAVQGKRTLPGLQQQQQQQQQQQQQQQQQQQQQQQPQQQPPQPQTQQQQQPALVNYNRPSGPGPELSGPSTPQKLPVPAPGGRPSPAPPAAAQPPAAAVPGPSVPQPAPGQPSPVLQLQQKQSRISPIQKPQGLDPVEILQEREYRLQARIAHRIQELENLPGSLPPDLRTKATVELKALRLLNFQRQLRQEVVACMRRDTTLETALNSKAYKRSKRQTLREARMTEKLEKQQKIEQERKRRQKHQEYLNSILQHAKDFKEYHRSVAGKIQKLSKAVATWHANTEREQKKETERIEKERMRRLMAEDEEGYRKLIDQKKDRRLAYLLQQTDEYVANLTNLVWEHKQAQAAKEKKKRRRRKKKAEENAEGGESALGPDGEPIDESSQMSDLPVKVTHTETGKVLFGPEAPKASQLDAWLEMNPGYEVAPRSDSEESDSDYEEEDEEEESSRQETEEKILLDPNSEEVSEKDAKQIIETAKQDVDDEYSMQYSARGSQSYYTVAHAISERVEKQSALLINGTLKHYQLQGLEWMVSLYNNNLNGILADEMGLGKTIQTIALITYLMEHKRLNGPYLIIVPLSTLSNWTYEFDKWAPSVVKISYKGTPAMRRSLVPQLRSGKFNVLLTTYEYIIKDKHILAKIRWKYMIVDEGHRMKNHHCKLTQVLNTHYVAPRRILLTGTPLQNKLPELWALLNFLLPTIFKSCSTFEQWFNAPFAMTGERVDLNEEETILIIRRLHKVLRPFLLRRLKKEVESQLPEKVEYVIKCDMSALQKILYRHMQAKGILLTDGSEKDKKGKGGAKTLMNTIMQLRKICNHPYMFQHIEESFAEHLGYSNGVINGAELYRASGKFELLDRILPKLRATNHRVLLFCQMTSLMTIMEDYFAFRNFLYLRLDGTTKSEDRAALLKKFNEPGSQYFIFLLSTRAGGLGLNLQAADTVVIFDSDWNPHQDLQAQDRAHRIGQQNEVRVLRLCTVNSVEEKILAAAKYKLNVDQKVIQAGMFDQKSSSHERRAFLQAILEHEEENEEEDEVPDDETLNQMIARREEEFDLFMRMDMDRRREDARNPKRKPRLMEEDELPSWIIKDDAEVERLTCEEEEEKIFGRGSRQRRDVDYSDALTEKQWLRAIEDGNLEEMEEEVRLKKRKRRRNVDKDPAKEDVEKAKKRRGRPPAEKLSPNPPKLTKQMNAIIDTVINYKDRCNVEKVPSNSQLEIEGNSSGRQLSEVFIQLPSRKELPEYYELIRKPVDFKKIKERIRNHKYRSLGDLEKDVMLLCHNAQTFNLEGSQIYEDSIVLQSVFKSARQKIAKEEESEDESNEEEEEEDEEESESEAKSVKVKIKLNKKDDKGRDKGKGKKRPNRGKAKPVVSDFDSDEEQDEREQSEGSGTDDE
Sequence of SMARCA4 (P51532 whole entry): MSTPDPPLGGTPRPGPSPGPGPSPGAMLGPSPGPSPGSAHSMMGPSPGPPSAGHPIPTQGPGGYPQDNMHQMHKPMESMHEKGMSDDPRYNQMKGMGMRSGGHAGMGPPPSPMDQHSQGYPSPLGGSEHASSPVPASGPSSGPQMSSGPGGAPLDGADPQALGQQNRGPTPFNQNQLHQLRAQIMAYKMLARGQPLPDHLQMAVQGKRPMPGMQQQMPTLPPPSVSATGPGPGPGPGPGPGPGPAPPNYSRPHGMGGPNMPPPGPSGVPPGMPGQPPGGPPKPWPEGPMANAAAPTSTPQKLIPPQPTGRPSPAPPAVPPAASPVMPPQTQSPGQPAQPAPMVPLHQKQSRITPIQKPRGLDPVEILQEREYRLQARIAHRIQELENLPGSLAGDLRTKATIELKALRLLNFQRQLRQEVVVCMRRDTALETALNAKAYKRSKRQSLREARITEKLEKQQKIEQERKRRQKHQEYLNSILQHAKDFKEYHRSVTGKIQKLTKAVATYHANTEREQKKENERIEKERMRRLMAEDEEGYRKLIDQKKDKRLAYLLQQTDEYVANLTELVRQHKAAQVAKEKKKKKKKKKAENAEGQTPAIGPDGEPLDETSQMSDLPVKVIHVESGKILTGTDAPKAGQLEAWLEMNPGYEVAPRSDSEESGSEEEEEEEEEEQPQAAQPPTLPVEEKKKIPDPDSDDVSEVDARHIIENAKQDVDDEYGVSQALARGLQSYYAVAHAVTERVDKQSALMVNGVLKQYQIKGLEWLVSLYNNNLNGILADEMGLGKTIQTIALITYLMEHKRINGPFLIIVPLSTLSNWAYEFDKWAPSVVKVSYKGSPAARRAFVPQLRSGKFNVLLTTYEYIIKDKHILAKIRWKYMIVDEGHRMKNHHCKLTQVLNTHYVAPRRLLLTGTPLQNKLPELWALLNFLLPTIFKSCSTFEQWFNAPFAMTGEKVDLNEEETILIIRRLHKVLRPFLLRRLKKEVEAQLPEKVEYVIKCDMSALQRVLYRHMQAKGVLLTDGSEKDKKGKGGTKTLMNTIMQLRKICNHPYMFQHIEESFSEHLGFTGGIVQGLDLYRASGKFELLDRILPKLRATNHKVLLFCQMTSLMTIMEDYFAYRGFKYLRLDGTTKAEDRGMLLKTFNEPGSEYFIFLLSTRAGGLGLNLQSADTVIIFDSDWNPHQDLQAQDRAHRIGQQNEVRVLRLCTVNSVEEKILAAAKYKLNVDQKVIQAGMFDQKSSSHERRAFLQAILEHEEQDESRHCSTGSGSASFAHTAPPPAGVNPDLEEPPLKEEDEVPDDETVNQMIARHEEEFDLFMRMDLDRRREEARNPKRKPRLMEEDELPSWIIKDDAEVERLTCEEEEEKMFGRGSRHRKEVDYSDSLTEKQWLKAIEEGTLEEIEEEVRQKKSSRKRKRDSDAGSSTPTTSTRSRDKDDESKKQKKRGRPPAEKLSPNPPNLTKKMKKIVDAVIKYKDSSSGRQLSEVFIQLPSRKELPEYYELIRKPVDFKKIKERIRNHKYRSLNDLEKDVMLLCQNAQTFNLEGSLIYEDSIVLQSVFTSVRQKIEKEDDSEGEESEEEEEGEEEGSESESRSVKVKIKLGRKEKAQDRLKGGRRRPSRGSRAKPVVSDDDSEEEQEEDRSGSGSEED

Take `Cc1ncsc1-c1ccc([C@H](C)NC(=O)[C@@H]2C[C@@H](O)CN2C(=O)[C@H](C(C)C)n2cc([C@H]3CC[C@H](CN4CCC(c5ccc6c(c5)C(C)(C)c5nc(=O)c7c(Cl)cccc7n5-6)CC4)CC3)nn2)cc1` [Compound B78, (2S,4R)-1-((S)-2-(4-((1r,4S)-4-((4-(4-chloro-7,7-dimethyl-5-oxo-5,7-dihydroindolo[1,2-a]quinazolin-9-yl)piperidin-1-yl)methyl)cyclohexyl)-1H-1,2,3-triazol-1-yl)-3-methylbutanoyl)-4-hydroxy-N—((S)-1-(4-(4-methylthiazol-5-yl)phenyl)ethyl)pyrrolidine-2-carboxamide]: the DC50 on SMARCA2 and on SMARCA4 (6 hrs incubation) was below 100 nM each time. Also, the Dmax is above 90% on SMARCA2 and above 90% on SMARCA4 (HT-1080, read-out: SMARC A4 HT1080 HiBit Dmax(%), HT1080 CRISPR knock-in cells, 6 hrs incubation).

`Cc1ncsc1-c1ccc([C@H](CN2CCOCC2)NC(=O)[C@@H]2C[C@@H](O)CN2C(=O)[C@@H](c2cc(O[C@H]3CC[C@H](CN4CCN(c5ccc6c(c5)-n5c(nc(=O)c7c(Cl)cccc75)C65CCCCC5)CC4)CC3)no2)C(C)C)cc1` [Compound B138, (2S,4R)-1-((R)-2-(3-(((1r,4R)-4-((4-(4′-chloro-5′-oxo-5′H-spiro[cyclohexane-1,7′-indolo[1,2-a]quinazolin]-10′-yl)piperazin-1-yl)methyl)cyclohexyl)oxy)isoxazol-5-yl)-3-methylbutanoyl)-4-hydroxy-N-((R)-1-(4-(4-methylthiazol-5-yl)phenyl)-2-morpholinoethyl)pyrrolidine-2-carboxamide]: the DC50 on SMARCA2 and on SMARCA4 (6 hrs incubation) was below 100 nM in each case. Moreover, the Dmax on SMARCA2 and on SMARCA4 (setting [1]) was above 90% in each case.

`Cc1ncsc1-c1ccc([C@H](CCCCCn2cc(-c3ccc4c(c3)-n3c(nc(=O)c5c(Cl)cccc53)C4(C)C)cn2)NC(=O)[C@@H]2C[C@@H](O)CN2C(=O)[C@@H](NC(=O)C2(F)CC2)C(C)(C)C)cc1` [Compound B46, (2S,4R)-N-((S)-6-(4-(4-chloro-7,7-dimethyl-5-oxo-5,7-dihydroindolo[1,2-a]quinazolin-10-yl)-1H-pyrazol-1-yl)-1-(4-(4-methylthiazol-5-yl)phenyl)hexyl)-1-((S)-2-(1-fluorocyclopropane-1-carboxamido)-3,3-dimethylbutanoyl)-4-hydroxypyrrolidine-2-carboxamide]: the DC50 at SMARCA2 and at SMARCA4 (6 hrs incubation) was below 100 nM each time. Also, the Dmax at SMARCA2 and on SMARCA4 (setting [1]) was 70 to 90% in each case.

Regarding `Cc1ncsc1-c1ccc([C@H](C)NC(=O)[C@@H]2C[C@@H](O)CN2C(=O)[C@@H](c2cc(OCCCn3cc(-c4ccc5c(c4)-n4c(nc(=O)c6c(Cl)cccc64)C5(C)C)cn3)no2)C(C)C)cc1` [Compound B72, (2S,4R)-1-((R)-2-(3-(3-(4-(4-chloro-7,7-dimethyl-5-oxo-5,7-dihydroindolo[1,2-a]quinazolin-10-yl)-1H-pyrazol-1-yl)propoxy)isoxazol-5-yl)-3-methylbutanoyl)-4-hydroxy-N-((S)-1-(4-(4-methylthiazol-5-yl)phenyl)ethyl)pyrrolidine-2-carboxamide], the DC50 on SMARCA2 and on SMARCA4 (6 hrs incubation) was below 100 nM each time. Besides, the Dmax on SMARCA2 is 50 to 69%; at SMARCA4 (setting [1]), below 50%.

`Cc1ncsc1-c1ccc([C@H](CN2CCOCC2)NC(=O)[C@@H]2C[C@@H](O)CN2C(=O)[C@@H](n2cc([C@H]3CC[C@H](S(=O)(=O)N4CCC(c5ccc6c(c5)-n5c(nc(=O)c7c(Cl)cccc75)C65CCCCC5)CC4)CC3)nn2)C(C)(C)C)cc1` [Compound B118, (2S,4R)-1-((S)-2-(4-((1r,4S)-4-((4-(4′-chloro-5′-oxo-5′H-spiro[cyclohexane-1,7′-indolo[1,2-a]quinazolin]-10′-yl)piperidin-1-yl)sulfonyl)cyclohexyl)-1H-1,2,3-triazol-1-yl)-3,3-dimethylbutanoyl)-4-hydroxy-N-((R)-1-(4-(4-methylthiazol-5-yl)phenyl)-2-morpholinoethyl)pyrrolidine-2-carboxamide]: the figures for the DC50 on SMARCA2 and on SMARCA4 (6 hrs incubation) were below 100 nM and 501 to 1000 nM, respectively. For the same molecule, the Dmax at SMARCA2 was 70 to 90%; on SMARCA4 (setting [1]), 50 to 69%.

With `Cc1ncsc1-c1ccc([C@H](C)NC(=O)[C@@H]2C[C@@H](O)CN2C(=O)[C@@H](c2cc(N3CCC(CN4CCC(c5cccc6c5C(C)(C)c5nc(=O)c7c(Cl)cccc7n5-6)CC4)CC3)no2)C(C)C)cc1` [Compound B10, (2S,4R)-1-((R)-2-(3-(4-((4-(4-chloro-7,7-dimethyl-5-oxo-5,7-dihydroindolo[1,2-a]quinazolin-8-yl)piperidin-1-yl)methyl)piperidin-1-yl)isoxazol-5-yl)-3-methylbutanoyl)-4-hydroxy-N—((S)-1-(4-(4-methylthiazol-5-yl)phenyl)ethyl)pyrrolidine-2-carboxamide], the DC50 on SMARCA2 and at SMARCA4 (6 hrs incubation) was below 100 nM in each case. For the same molecule, the Dmax at SMARCA2 is above 90%; at SMARCA4 (setting [1]), 70 to 90%.

For `Cc1ncsc1-c1ccc([C@H](C)NC(=O)[C@@H]2C[C@@H](O)CN2C(=O)[C@@H](c2cc(OCCc3cccc4c3C(C)(C)c3nc(=O)c5c(Cl)cccc5n3-4)no2)C(C)C)cc1` [Compound B116, (2S,4R)-1-((R)-2-(3-(2-(4-chloro-7,7-dimethyl-5-oxo-5,7-dihydroindolo[1,2-a]quinazolin-8-yl)ethoxy)isoxazol-5-yl)-3-methylbutanoyl)-4-hydroxy-N—((S)-1-(4-(4-methylthiazol-5-yl)phenyl)ethyl)pyrrolidine-2-carboxamide], the DC50 on SMARCA2 was below 100 nM; on SMARCA4 (6 hrs incubation) it was above 1000 nM. The values for the Dmax on SMARCA2 and at SMARCA4 (setting [1]) were 70 to 90% and below 50%, respectively.

Regarding `Cc1ncsc1-c1ccc([C@H](C)NC(=O)[C@@H]2C[C@@H](O)CN2C(=O)C(c2cc(N3CCC(c4ccc5c(c4)C(C)(C)c4nc(=O)c6c(Cl)cccc6n4-5)CC3)no2)C(C)C)cc1` (stereo partly drawn) [Compound B42, (2S,4R)-1-(2-(3-(4-(4-chloro-7,7-dimethyl-5-oxo-5,7-dihydroindolo[1,2-a]quinazolin-9-yl)piperidin-1-yl)isoxazol-5-yl)-3-methylbutanoyl)-4-hydroxy-N—((S)-1-(4-(4-methylthiazol-5-yl)phenyl)ethyl)pyrrolidine-2-carboxamide], the DC50 at SMARCA2 and on SMARCA4 (6 hrs incubation) was below 100 nM each time. Moreover, the Dmax at SMARCA2 was above 90%; at SMARCA4 (setting [1]) it was 70 to 90%.

For the molecule `Cc1ncsc1-c1ccc([C@H](C)NC(=O)[C@@H]2C[C@@H](O)CN2C(=O)[C@H](C(C)C)n2cc(CCN3CCC(c4ccc5c(c4)-n4c(nc(=O)c6c(Cl)cccc64)C5(C)C)CC3)nn2)cc1` [Compound B36, (2S,4R)-1-((S)-2-(4-(2-(4-(4-chloro-7,7-dimethyl-5-oxo-5,7-dihydroindolo[1,2-a]quinazolin-10-yl)piperidin-1-yl)ethyl)-1H-1,2,3-triazol-1-yl)-3-methylbutanoyl)-4-hydroxy-N-((S)-1-(4-(4-methylthiazol-5-yl)phenyl)ethyl)pyrrolidine-2-carboxamide], the DC50 at SMARCA2 and at SMARCA4 (6 hrs incubation) was below 100 nM throughout. Besides, the results for the Dmax at SMARCA2 and on SMARCA4 (setting [1]) were 70 to 90% and below 50%, respectively.

For the origin of these results see patent US20260092071A1, “COMPOUNDS AND COMPOSITIONS AS SMARCA2/4 DEGRADERS AND USES THEREOF” (REGENTS OF THE UNIVERSITY OF MICHIGAN, priority 2022, published 2026).
